From patent EP3928779A1 (Chugai Seiyaku Kabushiki Kaisha, priority 2014, dated 2016)

What was measured:
[1] = test system: rat small-intestinal brush border membrane vesicles; test: Inhibitory effect on 33PO4 uptake into rat small-intestinal brush border membrane vesicles (rapid filtration method); format: biochemical; settings: 33PO4 uptake into rat small-intestinal BBMVs; test compound 1 µM; reacted for 60 seconds
Outline: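 Uptake of ^33PO4 was measured by rapid filtration and liquid scintillation counting of filter-retained vesicles, after quenching with ice-cold 110 mM NaCl/1 mM KH2PO4/10 mM HEPES pH 7.5. Vesicles were brush border membranes from the upper small intestine of female Wistar rats aged 4–5 weeks.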

[2] = test system: adenine-induced renal failure rat; test: Suppressive effect on rise in serum phosphorus concentration of adenine-induced renal failure rat (0.1% in feed, 3 days); format: in vivo; settings: feed or water, 72 h, adenine-induced renal failure Wistar male rat, test compound 0.1% of mass concentration in feed for 3 days, Fiske-Subbarow method, read-out: rate (%) of suppression of a rise in serum phosphorus concentration
Excerpt: Adenine was forcedly administered orally to each Wistar male rat (7-8 weeks old) to impair renal functions and thereby prepare a hyperphosphatemia model ([…], Nagano N, Burke SK, Fukushima N. Sevelamer hydrochloride prevents ectopic calcification and renal osteodystrophy in chronic renal failure rats. Kidney Int. 2003 Aug; 64 (2): 441-50). Each test compound was mixed at a ratio of 0.1% of mass concentration with feed. The animal was fed with a given amount of the feed for 3 days. A group given feed non-supplemented with a test compound was used as a reference pathological group, and an adenine-unadministered group given feed non-supplemented with a test compound was used as a normal group. 3 days after the start of administration of the test compound, blood was collected from the jugular vein, and serum was collected. Serum phosphorus concentrations were measured by the Fiske-Subbarow method. The rate of suppression of a rise in serum phosphorus concentration was determined according to the following expression: Rate (%) of suppression of a rise in serum phosphorus concentration = (1-[(Serum phosphorus concentration of the test compound-treated pathological group)-(Serum phosphorus concentration of the normal group)]/[(Serum phosphorus concentration of the reference pathological group)-(Serum phosphorus concentration of the normal group)]) × 100 [formula] As a result, each test compound was confirmed to have a suppressive effect on a rise in serum phosphorus concentration. […]

SMILES: C[C@]12CCCN1N(Cc1ccc(C#CCCCC(=O)O)c(F)c1F)C(=O)C(C(=O)Nc1ccc(C(F)(F)F)cc1-c1cc(C(F)(F)F)ncn1)=C2O [Example 129, 6-[4-[[(4aR)-4-Hydroxy-4a-methyl-2-oxo-3-[[4-(trifluoromethyl)-2-[6-(trifluoromethyl)pyrimidin-4-yl]phenyl]carbamoyl]-6,7-dihydro-5H-pyrrolo[1,2-b]pyridazin-1-yl]methyl]-2,3-difluorophenyl]hex-5-ynoic acid]
- Rate of uptake inhibition (%) (1 µM) [1]: 63%
- inhibition in vivo at 0.1 % in feed [2]: 17%

SMILES: C[C@]12CCCN1N(Cc1ccc(C#CCN3CCOCC3)c(F)c1F)C(=O)C(C(=O)Nc1ccc(C(F)(F)F)cc1-c1ccc(C(F)(F)F)nc1)=C2O [Example 140, (4aR)-1-[[2,3-Difluoro-4-(3-morpholin-4-ylprop-1-ynyl)phenyl]methyl]-4-hydroxy-4a-methyl-2-oxo-N-[4-(trifluoromethyl)-2-[6-(trifluoromethyl)pyridin-3-yl]phenyl]-6,7-dihydro-5H-pyrrolo[1,2-b]pyridazine-3-carboxamide]
- Rate of uptake inhibition (%) (1 µM) [1]: 77%
- inhibition in vivo at 0.1 % in feed [2]: 39%

SMILES: C[C@]12CCCN1N(Cc1ccc(OCCCOC[C@H](O)CO)c(F)c1F)C(=O)C(C(=O)Nc1ccc(C(F)(F)F)cc1-c1ccc(C(F)(F)F)nc1)=C2O [Example 147, (4aR)-1-[[4-[3-[(2R)-2,3-Dihydroxypropoxy]propoxy]-2,3-difluorophenyl]methyl]-4-hydroxy-4a-methyl-2-oxo-N-[4-(trifluoromethyl)-2-[6-(trifluoromethyl)pyridin-3-yl]phenyl]-6,7-dihydro-5H-pyrrolo[1,2-b]pyridazine-3-carboxamide]
- Rate of uptake inhibition (%) (1 µM) [1]: 57%
- inhibition in vivo at 0.1 % in feed [2]: 35%

SMILES: C[C@]12CCCN1N(Cc1ccc(OCCCCOC[C@H](O)CO)c(F)c1F)C(=O)C(C(=O)Nc1ccc(C(F)(F)F)cc1-c1cc(C(F)(F)F)ncn1)=C2O [Example 152, (4aR)-1-[[4-[4-[(2R)-2,3-Dihydroxypropoxy]butoxy]-2,3-difluorophenyl]methyl]-4-hydroxy-4a-methyl-2-oxo-N-[4-(trifluoromethyl)-2-[6-(trifluoromethyl)pyrimidin-4-yl]phenyl]-6,7-dihydro-5H-pyrrolo[1,2-b]pyridazine-3-carboxamide]
- Rate of uptake inhibition (%) (1 µM) [1]: 54%
- inhibition in vivo at 0.1 % in feed [2]: 26%

SMILES: C[C@]12CCCN1N(Cc1ccc(OCCCCCCOC[C@H](O)CO)c(F)c1F)C(=O)C(C(=O)Nc1cnc(C(F)(F)F)nc1-c1ccc(C(F)(F)F)nc1)=C2O [Example 156, (4aR)-1-[[4-[6-[(2R)-2,3-Dihydroxypropoxy]hexoxy]-2,3-difluorophenyl]methyl]-4-hydroxy-4a-methyl-2-oxo-N-[2-(trifluoromethyl)-4-[6-(trifluoromethyl)pyridin-3-yl]pyrimidin-5-yl]-6,7-dihydro-5H-pyrrolo[1,2-b]pyridazine-3-carboxamide]
- Rate of uptake inhibition (%) (1 µM) [1]: 59%
- inhibition in vivo at 0.1 % in feed [2]: 21%

SMILES: C[C@]12CCCN1N(Cc1ccc(OCCN3CCOCC3)c(F)c1F)C(=O)C(C(=O)Nc1ccc(C(F)(F)F)cc1-c1cc(C(F)(F)F)ncn1)=C2O [Example 157, (4aR)-1-[[2,3-Difluoro-4-(2-morpholin-4-ylethoxy)phenyl]methyl]-4-hydroxy-4a-methyl-2-oxo-N-[4-(trifluoromethyl)-2-[6-(trifluoromethyl)pyrimidin-4-yl]phenyl]-6,7-dihydro-5H-pyrrolo[1,2-b]pyridazine-3-carboxamide]
- Rate of uptake inhibition (%) (1 µM) [1]: 89%
- inhibition in vivo at 0.1 % in feed [2]: 30%

SMILES: C[C@]12CCCN1N(Cc1ccc(CN3CCOCC3)c(F)c1F)C(=O)C(C(=O)Nc1ccc(C(F)(F)F)cc1-c1ccc(C(F)(F)F)nc1)=C2O.Cl [Example 164, (4aR)-1-[[2,3-Difluoro-4-(morpholin-4-ylmethyl)phenyl]methyl]-4-hydroxy-4a-methyl-2-oxo-N-[4-(trifluoromethyl)-2-[6-(trifluoromethyl)pyridin-3-yl]phenyl]-6,7-dihydro-5H-pyrrolo[1,2-b]pyridazine-3-carboxamide; hydrochloride]
- Rate of uptake inhibition (%) (1 µM) [1]: 64%
- inhibition in vivo at 0.1 % in feed [2]: 14%

SMILES: C[C@]12CCCN1N(Cc1cccc(Cl)c1F)C(=O)C(C(=O)Nc1cc(F)c(Br)c(F)c1)=C2O [Example 196, (4aR)-N-(4-Bromo-3,5-difluorophenyl)-1-[(3-chloro-2-fluorophenyl)methyl]-4-hydroxy-4a-methyl-2-oxo-6,7-dihydro-5H-pyrrolo[1,2-b]pyridazine-3-carboxamide]
- Rate of uptake inhibition (%) (1 µM) [1]: 90%
- inhibition in vivo at 0.1 % in feed [2]: 35%

SMILES: CN1[C@@H](C(C)(C)C)C(O)=C(C(=O)Nc2ccc(C(F)(F)F)cc2-c2cc(C(F)(F)F)ncn2)C(=O)N1Cc1ccc(OCCN2CCOCC2)c(F)c1F [Example 264, (3S)-3-tert-Butyl-1-[[2,3-difluoro-4-(2-morpholin-4-ylethoxy)phenyl]methyl]-4-hydroxy-2-methyl-6-oxo-N-[4-(trifluoromethyl)-2-[6-(trifluoromethyl)pyrimidin-4-yl]phenyl]-3H-pyridazine-5-carboxamide]
- Rate of uptake inhibition (%) (1 µM) [1]: 48%
- inhibition in vivo at 0.1 % in feed [2]: 15%

SMILES: CN1[C@@H](C(C)(C)C)C(O)=C(C(=O)Nc2ccc(Cl)cc2-c2ccc(C(F)(F)F)nc2)C(=O)N1Cc1ccc(OCCN2CCOCC2)c(F)c1F [Example 267, (3S)-3-tert-Butyl-N-[4-chloro-2-[6-(trifluoromethyl)pyridin-3-yl]phenyl]-1-[[2,3-difluoro-4-(2-morpholin-4-ylethoxy)phenyl]methyl]-4-hydroxy-2-methyl-6-oxo-3H-pyridazine-5-carboxamide]
- Rate of uptake inhibition (%) (1 µM) [1]: 71%
- inhibition in vivo at 0.1 % in feed [2]: 18%

SMILES: CSc1ccc(-c2cc(Cl)ccc2NC(=O)C2=C(O)[C@H](C(C)(C)C)N(C)N(Cc3ccc(OCCN4CCOCC4)c(F)c3F)C2=O)cn1 [Example 269, (3S)-3-tert-Butyl-N-[4-chloro-2-(6-methylsulfanylpyridin-3-yl)phenyl]-1-[[2,3-difluoro-4-(2-morpholin-4-ylethoxy)phenyl]methyl]-4-hydroxy-2-methyl-6-oxo-3H-pyridazine-5-carboxamide]
- Rate of uptake inhibition (%) (1 µM) [1]: 80%
- inhibition in vivo at 0.1 % in feed [2]: 15%

SMILES: Cc1c(C#N)ncnc1-c1cc(C(F)(F)F)ccc1NC(=O)C1=C(O)[C@H](C(C)(C)C)N(C)N(Cc2ccc(OCCN3CCOCC3)c(F)c2F)C1=O [Example 270, (3S)-3-tert-Butyl-N-[2-(6-cyano-5-methylpyrimidin-4-yl)-4-(trifluoromethyl)phenyl]-1-[[2,3-difluoro-4-(2-morpholin-4-ylethoxy)phenyl]methyl]-4-hydroxy-2-methyl-6-oxo-3H-pyridazine-5-carboxamide]
- Rate of uptake inhibition (%) (1 µM) [1]: 75%
- inhibition in vivo at 0.1 % in feed [2]: 20%

SMILES: CN1N(Cc2ccc(OCCN3CCOCC3)c(F)c2F)C(=O)C(C(=O)Nc2ccc(C(F)(F)F)cc2-c2cc(C(F)(F)F)ncn2)=C(O)C12CCC2 [Example 317, 6-[[2,3-Difluoro-4-(2-morpholin-4-ylethoxy)phenyl]methyl]-9-hydroxy-5-methyl-7-oxo-N-[4-(trifluoromethyl)-2-[6-(trifluoromethyl)pyrimidin-4-yl]phenyl]-5,6-diazaspiro[3.5]non-8-ene-8-carboxamide]
- Rate of uptake inhibition (%) (1 µM) [1]: 57%
- inhibition in vivo at 0.1 % in feed [2]: 22%

SMILES: CN1N(Cc2ccc(OCCCCC(=O)O)c(F)c2F)C(=O)C(C(=O)Nc2ccc(C(F)(F)F)cc2-c2cc(C(F)(F)F)ncn2)=C(O)C12CCCC2 [Example 333, 5-[2,3-Difluoro-4-[[10-hydroxy-6-methyl-8-oxo-9-[[4-(trifluoromethyl)-2-[6-(trifluoromethyl)pyrimidin-4-yl]phenyl]carbamoyl]-6,7-diazaspiro[4.5]dec-9-en-7-yl]methyl]phenoxy]pentanoic acid]
- Rate of uptake inhibition (%) (1 µM) [1]: 29%
- inhibition in vivo at 0.1 % in feed [2]: 8%

SMILES: COC[C@@H]1CCCN1CCOc1ccc(CN2C(=O)C(C(=O)Nc3ccc(C(F)(F)F)cc3-c3cc(C(F)(F)F)ncn3)=C(O)C3(CCC3)N2C)c(F)c1F [Example 345, 6-[[2,3-Difluoro-4-[2-[(2S)-2-(methoxymethyl)pyrrolidin-1-yl]ethoxy]phenyl]methyl]-9-hydroxy-5-methyl-7-oxo-N-[4-(trifluoromethyl)-2-[6-(trifluoromethyl)pyrimidin-4-yl]phenyl]-5,6-diazaspiro[3.5]non-8-ene-8-carboxamide]
- Rate of uptake inhibition (%) (1 µM) [1]: 73%
- inhibition in vivo at 0.1 % in feed [2]: 19%
